According to ChEMBL document CHEMBL3098076, “Triazino indole-quinoline hybrid: a novel approach to antileishmanial agents” (Bioorg Med Chem Lett, 2014):

How the values were obtained:
Leishmania donovani [1] = experiment: Antileishmanial activity against intracellular amastigote stage of Leishmania donovani MHOM/IN/80/Dd8 expressing luciferase firefly reporter gene infected in mouse J774A1 cells after 72 hrs by luminescence assay; format: functional, organism-based, J774.A1
Leishmania donovani [2] = experiment: Antileishmanial activity against extracellular promastigote stage of Leishmania donovani; format: functional, organism-based
[3] = (§1) Cytotoxicity against African green monkey Vero cells after 72 hrs by MTT assay; format: cell-based; settings: chlorocebus sabaeus, Vero cells
[4] = (§2) Selectivity index, ratio of CC50 for African green monkey Vero cells to IC50 for amastigote stage of Leishmania donovani MHOM/IN/80/Dd8; format: functional
Vero [5] = experiment: as §1; format: cell-based; settings: chlorocebus sabaeus, vero, 72 h
Vero [6] = experiment: as §2; format: functional
[7] = Leishmania donovani, MHOM/IN/80/Dd8, J774.A1, 72 h, read-out: IC50

Compound	IC50 (Leishmania donovani [1]; [7]) [µM]	IC50 (Leishmania donovani [2]; Leishmania donovani) [µM]	IC50 (Leishmania donovani [1]; j774.a1)	CC50 at 72 h [3] [µM]	Ratio CC50/IC50 [4]	further results
CCn1c2ccc(Br)cc2c2nnc(SCCNc3ccnc4cc(Cl)ccc34)nc21	> 40	> 40				
CCn1c2ccccc2c2nnc(SCCCCCNc3ccnc4cc(Cl)ccc34)nc21		8.95	ND(toxic)			
CCn1c2ccccc2c2nnc(SCCNc3ccnc4cc(Cl)ccc34)nc21	7.1	9.1		61.5	7	
CCCCCCCCCCCCCCCCOP(=O)([O-])OCC[N+](C)(C)C [MILTEFOSINE]		1.1			7	
Cn1c2ccc(Br)cc2c2nnc(SCCNc3ccnc4cc(Cl)ccc34)nc21	> 40	> 40				
SODIUM ANTIMONY GLUCONATE [listing 1 of 2 here]						CC50 (Vero [5]): > 400 µM; IC50 (Leishmania donovani [1]; j774.a1, read-out: IC50): 54.6 µM; IC50 (Leishmania donovani [2]): > 200 µM
Clc1ccc2c(NCCSc3nnc4c(n3)[nH]c3ccccc34)ccnc2c1	1.11	8.75		74.3	67	
SODIUM ANTIMONY GLUCONATE [listing 2 of 2 here]						Ratio CC50/IC50 (Vero [6]): > 7
CCCCn1c2ccccc2c2nnc(SCCNc3ccnc4cc(Cl)ccc34)nc21	29.5	> 40				
Clc1ccc2c(NCCSc3nnc4c(n3)[nH]c3ccc(Br)cc34)ccnc2c1		7.09	ND(toxic)			
Cn1c2ccc([N+](=O)[O-])cc2c2nnc(SCCNc3ccnc4cc(Cl)ccc34)nc21		1.95	ND(toxic)			
Cn1c2ccccc2c2nnc(SCCCNc3ccnc4cc(Cl)ccc34)nc21		24.1	ND(toxic)			
C=CCn1c2ccccc2c2nnc(SCCNc3ccnc4cc(Cl)ccc34)nc21	10.1	7.9		10.5	1	
CCn1c2ccccc2c2nnc(SCCCNc3ccnc4cc(Cl)ccc34)nc21		2.66	ND(toxic)			
CCCn1c2ccccc2c2nnc(SCCNc3ccnc4cc(Cl)ccc34)nc21	14.7	> 40		41.7	3	
CC(C)n1c2ccccc2c2nnc(SCCNc3ccnc4cc(Cl)ccc34)nc21	2.88	21.9		19.4	7	
Cn1c2ccccc2c2nnc(SCCCCCNc3ccnc4cc(Cl)ccc34)nc21		15	ND(toxic)			
Cn1c2nc(SCCNc3ccnc4cc(Cl)ccc34)nnc2c2cccc(C(F)(F)F)c21	6.46	6.46		39.3	6	
CC(C)Cn1c2ccccc2c2nnc(SCCNc3ccnc4cc(Cl)ccc34)nc21	5.69	17		28.6	5	
Clc1ccc2c(NCCSc3nnc4c5ccccc5n(Cc5ccccc5)c4n3)ccnc2c1		8.08	ND(toxic)			
Cn1c2ccccc2c2nnc(SCCNc3ccnc4cc(Cl)ccc34)nc21	0.36	6.27		> 400	>1111	
Clc1ccc2c(NCCCSc3nnc4c(n3)[nH]c3ccccc34)ccnc2c1		18.9	ND(toxic)			
